# Source: patent publication US11021493B2, “1,4-thiazine dioxide and 1,2,4-thiadiazine dioxide derivatives as beta-secretase inhibitors and methods of use” (AMGEN INC., priority 2016, dated 2021)
# Key:
# [1] = target: T1, BACE1 (Homo sapiens (Human), UniProt P56817); test: In vitro enzymatic BACE1 FRET assay; type: biochemical; settings: read-out: BACE1 Enzyme IC50
# Target sequence in this assay (P56817 46-501): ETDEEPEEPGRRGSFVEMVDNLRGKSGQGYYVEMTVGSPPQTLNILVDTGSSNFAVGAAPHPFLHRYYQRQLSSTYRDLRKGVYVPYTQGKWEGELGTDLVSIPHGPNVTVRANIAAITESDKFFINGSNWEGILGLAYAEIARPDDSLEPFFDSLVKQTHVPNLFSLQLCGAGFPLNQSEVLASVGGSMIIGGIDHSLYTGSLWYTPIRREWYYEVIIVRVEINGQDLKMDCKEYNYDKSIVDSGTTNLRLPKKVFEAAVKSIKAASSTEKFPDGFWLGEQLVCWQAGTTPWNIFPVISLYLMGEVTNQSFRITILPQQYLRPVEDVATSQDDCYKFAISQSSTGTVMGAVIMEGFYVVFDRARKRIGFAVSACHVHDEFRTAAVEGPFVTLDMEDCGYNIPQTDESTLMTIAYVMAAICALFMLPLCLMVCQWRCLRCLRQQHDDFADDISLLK
# [2] = target: T1, BACE1; test: In vitro BACE1 cell-based assay (Aβ40 in conditioned medium of cells stably expressing APP, HTRF); settings: Aβ40 in conditioned media after 24 h incubation
# Target sequence in this assay (P56817 46-501, species assumed): as the sequence (P56817 46-501) above
# [3] = target: human recombinant BACE2 (Homo sapiens (Human), UniProt Q9Y5Z0); test: In vitro enzymatic BACE2 FRET assay; type: biochemical; settings: read-out: BACE2 Enzyme IC50
# [4] = target: Cathepsin D (CatD) (Homo sapiens (Human), UniProt P07339); test: In vitro enzymatic Cathepsin D (CatD) FRET assay; type: biochemical; settings: read-out: Cat D Enzyme IC50
# Cathepsin D (CatD), sequence (P07339 65-412, species assumed): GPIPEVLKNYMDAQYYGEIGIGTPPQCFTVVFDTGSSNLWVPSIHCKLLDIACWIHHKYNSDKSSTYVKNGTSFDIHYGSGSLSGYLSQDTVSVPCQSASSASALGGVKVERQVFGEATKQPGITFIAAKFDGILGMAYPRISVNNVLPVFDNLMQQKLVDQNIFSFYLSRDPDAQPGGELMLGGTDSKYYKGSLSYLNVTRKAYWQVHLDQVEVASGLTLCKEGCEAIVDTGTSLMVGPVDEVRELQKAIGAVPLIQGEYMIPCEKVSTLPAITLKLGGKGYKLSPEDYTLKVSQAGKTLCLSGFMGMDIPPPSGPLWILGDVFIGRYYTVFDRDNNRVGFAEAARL
# human recombinant BACE2, sequence (Q9Y5Z0 63-518): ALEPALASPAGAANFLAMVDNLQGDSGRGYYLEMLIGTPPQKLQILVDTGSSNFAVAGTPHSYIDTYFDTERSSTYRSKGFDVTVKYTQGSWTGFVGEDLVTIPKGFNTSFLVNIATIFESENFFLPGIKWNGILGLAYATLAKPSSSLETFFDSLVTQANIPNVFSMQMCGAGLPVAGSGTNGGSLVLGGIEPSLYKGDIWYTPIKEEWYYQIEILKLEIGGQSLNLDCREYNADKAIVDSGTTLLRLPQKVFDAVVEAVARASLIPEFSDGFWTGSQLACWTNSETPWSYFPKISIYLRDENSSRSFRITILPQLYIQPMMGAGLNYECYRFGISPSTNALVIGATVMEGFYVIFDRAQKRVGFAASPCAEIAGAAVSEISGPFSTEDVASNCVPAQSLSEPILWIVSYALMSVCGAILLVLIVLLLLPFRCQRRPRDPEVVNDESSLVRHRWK
Compound,IC50 [1] [µM],IC50 [2] [µM],IC50 [3] [µM],IC50 [4] [µM]
"CC1(C)C(N)=N[C@](CF)(c2cc(/C=C(\F)c3ccc(C#N)cn3)ccc2F)CS1(=O)=O [Example 188, (S,Z)-6-(2-(3-(5-amino-3-(fluoromethyl)-6,6-dimethyl-1,1-dioxido-3,6-dihydro-2H-1,4-thiazin-3-yl)-4-fluorophenyl)-1-fluorovinyl)nicotinonitrile]",0.013,0.222,0.057,155
"CC1(C)C(N)=N[C@](C)(c2cc(/C=C(\F)c3cnc(C#N)cn3)ccc2F)CS1(=O)=O [Example 170, (R,Z)-5-(2-(3-(5-amino-3,6,6-trimethyl-1,1-dioxido-3,6-dihydro-2H-1,4-thiazin-3-yl)-4-fluorophenyl)-1-fluorovinyl)pyrazine-2-carbonitrile]",0.002,0.005,0.017,645
"C[C@]1(c2cc(/C=C(\F)c3cnc(OCCF)cn3)ccc2F)N=C(N)[C@@]2(CF)CC[C@@H]1S2(=O)=O [Example 133, (1R,4R,5S)-2-amino-4-(2-fluoro-5-((Z)-2-fluoro-2-(5-(2-fluoroethoxy)pyrazin-2-yl)vinyl)phenyl)-1-(fluoromethyl)-4-methyl-8-thia-3-azabicyclo[3.2.1]oct-2-ene 8,8-dioxide]",0.131,0.339,0.151,428
"CCC#C[C@@H](C)Oc1cnc(/C(F)=C/c2ccc(F)c([C@]3(C)CS(=O)(=O)C(C)(C)C(N)=N3)c2)cn1 (single isomer, unassigned) [Example 216]",0.628,5.36,0.364,29.9
"COC[C@H](C)Oc1cnc(/C(F)=C/c2ccc(F)c([C@@]3(C)N=C(N)[C@@]4(CF)CC[C@@H]3S4(=O)=O)c2)cn1 [Example 131, (1R,4R,5S)-2-amino-4-(2-fluoro-5-((Z)-2-fluoro-2-(5-(((S)-1-methoxypropan-2-yl)oxy)pyrazin-2-yl)vinyl)phenyl)-1-(fluoromethyl)-4-methyl-8-thia-3-azabicyclo[3.2.1]oct-2-ene 8,8-dioxide]",0.013,0.097,0.104,> 400
"CN1C(N)=N[C@](C)(c2cc(/C=C(\F)c3cnc(OCC(F)(F)C(F)F)cn3)ccc2F)CS1(=O)=O [Example 148, (R,Z)-3-amino-5-(2-fluoro-5-(2-fluoro-2-(5-(2,2,3,3-tetrafluoropropoxy)pyrazin-2-yl)vinyl)phenyl)-2,5-dimethyl-5,6-dihydro-2H-1,2,4-thiadiazine 1,1-dioxide]",0.018,0.088,0.217,25.3
"Cc1cnc(COc2cnc(/C(F)=C/c3ccc(F)c([C@@]4(C)N=C(N)N(C)S(=O)(=O)C45CC5)c3)cn2)o1 [Example 169, (8R)-8-(2-fluoro-5-((Z)-2-fluoro-2-(5-((5-methyl-1,3-oxazol-2-yl)methoxy)-2-pyrazinyl)ethenyl)phenyl)-5,8-dimethyl-4-thia-5,7-diazaspiro[2.5]oct-6-en-6-amine 4,4-dioxide]",0.066,0.124,0.907,698
"COC(C)COc1cnc(/C(F)=C/c2ccc(F)c([C@]3(C)CS(=O)(=O)N(C)C(N)=N3)c2)cn1 (stereo partly drawn) [Example 172, (R)-3-amino-5-(2-fluoro-5-((Z)-2-fluoro-2-(5-(2-methoxypropoxy)pyrazin-2-yl)vinyl)phenyl)-2,5-dimethyl-5,6-dihydro-2H-1,2,4-thiadiazine 1,1-dioxide]",0.025,0.023,0.084,67.6
"CC1(C)C(N)=N[C@](C)(c2cc(/C=C(\F)c3cnc(OCCn4cccn4)cn3)ccc2F)CS1(=O)=O [Example 157, (R,Z)-3-(5-(2-(5-(2-(1H-pyrazol-1-yl)ethoxy)pyrazin-2-yl)-2-fluorovinyl)-2-fluorophenyl)-5-amino-3,6,6-trimethyl-3,6-dihydro-2H-1,4-thiazine 1,1-dioxide]",0.187,0.181,0.478,57.5
"CN1C(N)=N[C@](C)(c2cc(/C=C(\F)c3cnc(Cl)cn3)ccc2F)C(C)(C)S1(=O)=O [Example 182, (R,Z)-3-amino-5-(5-(2-(5-chloropyrazin-2-yl)-2-fluorovinyl)-2-fluorophenyl)-2,5,6,6-tetramethyl-5,6-dihydro-2H-1,2,4-thiadiazine 1,1-dioxide]",0.039,0.318,0.076,217
"C[C@]1(c2cc(/C=C(\F)c3cnc(OCC4COC4)cn3)ccc2F)N=C(N)[C@@]2(CF)CC[C@@H]1S2(=O)=O [Example 126, (1R,4R,5S)-2-amino-4-(2-fluoro-5-((Z)-2-fluoro-2-(5-(oxetan-3-ylmethoxy)pyrazin-2-yl)vinyl)phenyl)-1-(fluoromethyl)-4-methyl-8-thia-3-azabicyclo[3.2.1]oct-2-ene 8,8-dioxide]",0.138,0.457,0.141,100
"C[C@@H](CO)Oc1cnc(/C(F)=C/c2ccc(F)c([C@]3(C)CS(=O)(=O)C(C)(C)C(N)=N3)c2)cn1 [Example 218, (R)-5-amino-3-(2-fluoro-5-((Z)-2-fluoro-2-(5-(((S)-1-hydroxypropan-2-yl)oxy)pyrazin-2-yl)vinyl)phenyl)-3,6,6-trimethyl-3,6-dihydro-2H-1,4-thiazine 1,1-dioxide]",0.18,0.529,0.285,195
"CC1(C)C(N)=N[C@](C)(c2cc(/C=C(\F)c3cc4c(cn3)OCCO4)ccc2F)CS1(=O)=O [Example 184, (R,Z)-5-amino-3-(5-(2-(2,3-dihydro-[1,4]dioxino[2,3-c]pyridin-7-yl)-2-fluorovinyl)-2-fluorophenyl)-3,6,6-trimethyl-3,6-dihydro-2H-1,4-thiazine 1,1-dioxide]",0.296,0.277,0.79,335
"CN1C(N)=N[C@](C)(c2cc(/C=C(\F)c3ccc4c(c3)OCCO4)ccc2F)CS1(=O)=O [Example 196, (R,Z)-3-amino-5-(5-(2-(2,3-dihydrobenzo[b][1,4]dioxin-6-yl)-2-fluorovinyl)-2-fluorophenyl)-2,5-dimethyl-5,6-dihydro-2H-1,2,4-thiadiazine 1,1-dioxide]",0.583,1.08,0.157,56.1
"CC1(C)C(N)=N[C@](C)(c2cc(/C=C(\F)c3cnc(Cl)cn3)cnc2F)CS1(=O)=O [Example 203, (R,Z)-5-amino-3-(5-(2-(5-chloropyrazin-2-yl)-2-fluorovinyl)-2-fluoropyridin-3-yl)-3,6,6-trimethyl-3,6-dihydro-2H-1,4-thiazine 1,1-dioxide]",0.125,0.196,0.056,85.4
"CC1(C)C(N)=N[C@](C)(c2cc(/C=C(\F)c3ccc(C(F)(F)F)cn3)ccc2F)CS1(=O)=O [Example 265, (R,Z)-5-amino-3-(2-fluoro-5-(2-fluoro-2-(5-(trifluoromethyl)pyridin-2-yl)vinyl)phenyl)-3,6,6-trimethyl-3,6-dihydro-2H-1,4-thiazine 1,1-dioxide]",0.008,0.01,0.043,89.4
"CN1C(N)=N[C@](C)(c2cc(/C=C(\F)c3ccc(Br)cn3)ccc2F)CS1(=O)=O [Example 247, (R,Z)-3-amino-5-(5-(2-(5-bromopyridin-2-yl)-2-fluorovinyl)-2-fluorophenyl)-2,5-dimethyl-5,6-dihydro-2H-1,2,4-thiadiazine 1,1-dioxide]",0.006,0.028,0.007,11
"CC1(C)C(N)=N[C@](C)(c2cc(/C=C(\F)c3cnc(OCc4ccncc4)cn3)ccc2F)CS1(=O)=O [Example 210, (R,Z)-5-amino-3-(2-fluoro-5-(2-fluoro-2-(5-(pyridin-4-ylmethoxy)pyrazin-2-yl)vinyl)phenyl)-3,6,6-trimethyl-3,6-dihydro-2H-1,4-thiazine 1,1-dioxide]",1.72,2.23,0.476,467
"C#C[C@@H](CC)Oc1cnc(/C(F)=C/c2ccc(F)c([C@]3(C)CS(=O)(=O)C(C)(C)C(N)=N3)c2)cn1 (single isomer, unassigned) [Example 177]",0.208,0.6,0.101,61.4
"CN1C(N)=N[C@](C)(c2cc(/C=C(\F)c3ccc(Cl)cn3)cc(F)c2F)CS1(=O)=O [Example 152, (R,Z)-3-amino-5-(5-(2-(5-chloropyridin-2-yl)-2-fluorovinyl)-2,3-difluorophenyl)-2,5-dimethyl-5,6-dihydro-2H-1,2,4-thiadiazine 1,1-dioxide]",0.015,0.047,0.006,48.8
"COc1cnc(/C(F)=C/c2ccc(F)c([C@@]3(C)N=C(N)[C@@]4(CF)CC[C@@H]3S4(=O)=O)c2)cn1 [Example 121, (1R,4R,5S)-2-amino-4-(2-fluoro-5-((Z)-2-fluoro-2-(5-methoxypyrazin-2-yl)vinyl)phenyl)-1-(fluoromethyl)-4-methyl-8-thia-3-azabicyclo[3.2.1]oct-2-ene 8,8-dioxide]",0.098,0.191,0.18,> 400
"COC[C@H](C)Oc1cnc(/C(F)=C/c2ccc(F)c([C@]3(C)CS(=O)(=O)N(C)C(N)=N3)c2)cn1 [Example 164, (R)-3-amino-5-(2-fluoro-5-((Z)-2-fluoro-2-(5-(((S)-1-methoxypropan-2-yl)oxy)pyrazin-2-yl)vinyl)phenyl)-2,5-dimethyl-5,6-dihydro-2H-1,2,4-thiadiazine 1,1-dioxide]",0.011,0.011,0.108,107
